Reference: patent publication US12187713B2, “Immunomodulators, compositions and methods thereof” (Betta Pharmaceuticals Co., Ltd, priority 2019, dated 2025)

Assays:
PD-1/PD-L1 = PD-1/PD-L1 (Homo sapiens (Human), UniProt Q9NZQ7); assay: PD-1/PD-L1 Binding Assay (Alphascreen)
Summary of the method: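 PD-1/PD-L1 binding detected by anti-6×His acceptor and streptavidin donor beads after 120 min in the dark at 25 °C. Beforehand, the two proteins were incubated 15 min at 25 °C with inhibitor at 0.015–300 nM (1% DMSO). IC50 comes from a log concentration–response curve.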

[1] = Pharmacokinetic Assay, single oral dose 5 mg/kg (Table 12); type: in vivo; settings: mouse, plasma concentration, C57 female mice, single oral dose 5 mg/kg
Summary of the method: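 Adult female C57 mice (n=3) got one intragastric dose of 5 mg/kg in 15% DMSO, 10% Kolliphor HS 15, 75% saline. Retro-orbital blood was taken at 30 min, 2 h and 4 h into K2-EDTA. Plasma levels were measured by LC-MS/MS.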

Chain of PD-1/PD-L1 (Q9NZQ7 19-238): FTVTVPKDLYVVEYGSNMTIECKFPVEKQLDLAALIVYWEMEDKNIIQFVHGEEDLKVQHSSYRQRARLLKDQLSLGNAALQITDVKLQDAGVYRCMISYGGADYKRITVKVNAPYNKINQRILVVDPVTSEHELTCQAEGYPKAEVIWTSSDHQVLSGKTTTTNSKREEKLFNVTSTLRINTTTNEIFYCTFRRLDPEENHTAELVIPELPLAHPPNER

| IC50 (PD-1/PD-L1; range symbols) [nM] | concentration at 0.5 h [1] [ng/mL] | concentration at 2 h [1] [ng/mL] | concentration at 4 h [1] [ng/mL] | IC50 (PD-1/PD-L1; numeric values) [nM] | SMILES |
| --- | --- | --- | --- | --- | --- |
| 0.1 to 5 | 75.9 | 146 | 135 |  | Cc1c(-c2nc3cc(CN4CC[C@@H](C(=O)O)C4)c(OC(F)F)cc3o2)cccc1-c1cccc(-c2nc3cc(CN4CC(C)(C)C4)c(OC(F)F)cc3o2)c1C [Example 85, (R)-1-((6-(difluoromethoxy)-2-(3′-(6-(difluoromethoxy)-5-((3,3-dimethylazetidin-1-yl)methyl)benzo[d]oxazol-2-yl)-2,2′-dimethyl-[1,1′-biphenyl]-3-yl)benzo[d]oxazol-5-yl)methyl)pyrrolidine-3-carboxylic acid] |
| 5 to 50 | 294 | 877 | 853 |  | Cc1c(-c2nc3cc(CN4CCC[C@H]4C(=O)O)c(OC(F)F)cc3o2)cccc1-c1cccc(-c2nc3cc(CN4CC(F)C(F)C4)cc(C#N)c3o2)c1C (stereo partly drawn) [Example 164, ((2-(3′-(7-cyano-5-((3,4-difluoropyrrolidin-1-yl)methyl)benzo [d]oxazol-2-yl)-2,2′-dimethyl-[1,1′-biphenyl]-3-yl)-6-(difluoromethoxy)benzo[d]oxazol-5-yl)methyl)-L-proline] |
| 0.1 to 5 | 39.1 | 80 | 41.8 |  | COc1nc(-c2cccc(-c3cccc(-c4nc5cc(CN6CCC[C@H]6C(=O)O)c(OC(F)F)cc5o4)c3C)c2C)cnc1CN1CCCC1 [Example 285, ((6-(difluoromethoxy)-2-(3′-(6-methoxy-5-(pyrrolidin-1-ylmethyl)pyrazin-2-yl)-2,2′-dimethyl-[1,1′-biphenyl]-3-yl)benzo[d]oxazol-5-yl)methyl)-L-proline] |
| 5 to 50 | 522 | 1170 | 965 |  | Cc1c(-c2cnc(N3CCCC3)nc2)cccc1-c1cccc(-c2nc3cc(CN4CCC[C@H]4C(=O)O)c(OC(F)F)cc3o2)c1C [Example 283, ((6-(difluoromethoxy)-2-(2,2′-dimethyl-3′-(2-(pyrrolidin-1-yl)pyrimidin-5-yl)-[1,1′-biphenyl]-3-yl)benzo[d]oxazol-5-yl)methyl)-L-proline] |
| 0.1 to 5 | 21.3 | 124 | 109 |  | Cc1c(-c2nc3cc(CN4CCC[C@H]4C(=O)O)c(OC(F)F)cc3o2)cccc1-c1cccc(-c2nc3cc(CN4CC5CC4C5)cc(C(F)(F)F)c3o2)c1C [Example 89] |
|  | 143 | 418 | 462 | 6.7 | Cc1c(-c2nc3cc(CN4CCC(C)(C)C4)c(OC(F)F)cc3o2)cccc1-c1cccc(-c2nc3cc(CN4CCC[C@H]4C(=O)O)c(OC(F)F)cc3o2)c1C [Example 67, ((6-(difluoromethoxy)-2-(3′-(6-(difluoromethoxy)-5-((3,3-dimethylpyrrolidin-1-yl)methyl)benzo[d]oxazol-2-yl)-2,2′-dimethyl-[1,1′-biphenyl]-3-yl)benzo[d]oxazol-5-yl)methyl)-L-proline] |
| 0.1 to 5 | 90.4 | 223 | 202 |  | Cc1c(-c2ccc(CN3CCC(F)C3)cc2)cccc1-c1cccc(-c2nc3cc(CN4CCC[C@H]4C(=O)O)c(OC(F)F)cc3o2)c1C (stereo partly shown) [Example 242, ((6-(difluoromethoxy)-2-(4″-((3-fluoropyrrolidin-1-yl)methyl)-2,2′-dimethyl-[1,1′:3′,1″-terphenyl]-3-yl)benzo[d]oxazol-5-yl)methyl)proline] |
|  | 36.9 | 149 | 114 | 4.1 | COC1CCN(Cc2ccc(-c3cccc(-c4cccc(-c5nc6cc(CN7CCC[C@H]7C(=O)O)c(OC(F)F)cc6o5)c4C)c3C)cc2)C1 (stereo partly drawn) [Example 227, ((6-(difluoromethoxy)-2-(4″-((3-methoxypyrrolidin-1-yl)methyl)-2,2′-dimethyl-[1,1′:3′,1″-terphenyl]-3-yl)benzo[d]oxazol-5-yl)methyl)-L-proline] |
|  | 36.4 | 151 | 158 | 3.3 | Cc1c(-c2nc3cc(CN4CC=CC4)c(OC(F)F)cc3o2)cccc1-c1cccc(-c2nc3cc(CN4CCC[C@H]4C(=O)O)c(OC(F)F)cc3o2)c1C [Example 70, ((6-(difluoromethoxy)-2-(3′-(6-(difluoromethoxy)-5-((2,5-dihydro-1H-pyrrol-1-yl)methyl)benzo[d]oxazol-2-yl)-2,2′-dimethyl-[1,1′-biphenyl]-3-yl)benzo[d]oxazol-5-yl)methyl)-L-proline] |
|  | 61.3 | 253 | 216 | 3.1 | Cc1c(-c2nc3cc(CN4CCC[C@H]4C(=O)O)c(OC(F)F)cc3o2)cccc1-c1cccc(-c2nc3cc(CN4CCCC4)cc(C#N)c3o2)c1C [Example 127, ((2-(3′-(7-cyano-5-(pyrrolidin-1-ylmethyl)benzo[d]oxazol-2-yl)-2,2′-dimethyl-[1,1′-biphenyl]-3-yl)-6-(difluoromethoxy)benzo[d]oxazol-5-yl)methyl)-L-proline] |
| 0.1 to 5 | 740 | 872 | 820 |  | Cc1c(-c2nc3c(o2)CCC3)cccc1-c1cccc(-c2nc3cc(CN4CCC[C@H]4C(=O)O)c(OC(F)F)cc3o2)c1C [Example 204, ((6-(difluoromethoxy)-2-(3′-(5,6-dihydro-4H-cyclopenta[d]oxazol-2-yl)-2,2′-dimethyl-[1,1′-biphenyl]-3-yl)benzo[d]oxazol-5-yl)methyl)proline] |
| 0.1 to 5 | 376 | 404 | 219 |  | Cc1c(-c2nc3cc(CN4CCC[C@H]4C(=O)O)c(OC(F)F)cc3o2)cccc1-c1cccc(-c2nc3cc(CN4CC[C@@H](C#N)C4)cc(C#N)c3o2)c1C [Example 165, ((2-(3′-(7-cyano-5-(((R)-3-cyanopyrrolidin-1-yl)methyl)benzo[d]oxazol-2-yl)-2,2′-dimethyl-[1,1′-biphenyl]-3-yl)-6-(difluoromethoxy)benzo[d]oxazol-5-yl)methyl)-L-proline] |
| 5 to 50 | 527 | 741 | 369 |  | CCS(=O)(=O)N1CCc2oc(-c3cccc(-c4cccc(-c5nc6cc(CN7CCC[C@H]7C(=O)O)c(OC(F)F)cc6o5)c4C)c3C)nc2C1 [Example 197, ((6-(difluoromethoxy)-2-(3′-(5-(ethylsulfonyl)-4,5,6,7-tetrahydrooxazolo[4,5-c]pyridin-2-yl)-2,2′-dimethyl-[1,1′-biphenyl]-3-yl)benzo[d]oxazol-5-yl)methyl)proline] |
| 0.1 to 5 | 121 | 319 | 243 |  | COc1c(-c2nc3cc(CN4CCCC4)c(F)c(F)c3o2)cccc1-c1cccc(-c2nc3cc(CN4CCC[C@H]4C(=O)O)c(OC(F)F)cc3o2)c1C [Example 117, ((2-(3′-(6,7-difluoro-5-(pyrrolidin-1-ylmethyl)benzo[d]oxazol-2-yl)-2′-methoxy-2-methyl-[1,1′-biphenyl]-3-yl)-6-(difluoromethoxy)benzo[d]oxazol-5-yl)methyl)-L-proline] |
|  | 143 | 322 | 296 | 41 | Cc1c(-c2ccc(CN3CCCC3)c(C(F)(F)F)c2)cccc1-c1cccc(-c2nc3cc(CN4CCC[C@H]4C(=O)O)c(OC(F)F)cc3o2)c1C [Example 233, ((6-(difluoromethoxy)-2-(2,2′-dimethyl-4″- (pyrrolidin-1-ylmethyl)-3″-(trifluoromethyl)-[1,1′:3′,1″-terphenyl]-3-yl)benzo[d]oxazol-5-yl)methyl)-L-proline] |
|  | 80.9 | 221 | 214 | 19 | Cc1c(-c2nc3cc(CN4CCC(F)C4)c(OC(F)F)cc3o2)cccc1-c1cccc(-c2nc3cc(CN4CCC[C@H]4C(=O)O)c(OC(F)F)cc3o2)c1C (stereo partly drawn) [Example 10, ((6-(difluoromethoxy)-2-(3′-(6-(difluoromethoxy)-5-((3-fluoropyrrolidin-1-yl)methyl)benzo[d]oxazol-2-yl)-2,2′-dimethyl-[1,1′-biphenyl]-3-yl)benzo[d]oxazol-5-yl)methyl)-L-proline] |
| 5 to 50 | 115 | 468 | 383 |  | C=C1CN(Cc2cc3nc(-c4cccc(-c5cccc(-c6nc7cc(CN8CCC[C@H]8C(=O)O)c(OC(F)F)cc7o6)c5C)c4C)oc3cc2OC(F)F)C1 [Example 81, ((6-(difluoromethoxy)-2-(3′-(6-(difluoromethoxy)-5-((3-methyleneazetidin-1-yl)methyl)benzo[d]oxazol-2-yl)-2,2′-dimethyl-[1,1′-biphenyl]-3-yl)benzo[d]oxazol-5-yl)methyl)-L-proline] |
|  | 8.36 | 25.4 | 9.68 | 1.5 | Cc1c(-c2ccc3c(c2)CCNC3)cccc1-c1cccc(-c2nc3cc(CN4CCC[C@H]4C(=O)O)c(OC(F)F)cc3o2)c1C [Example 288, ((6-(difluoromethoxy)-2-(2,2′-dimethyl-3′-(1,2,3,4-tetrahydroisoquinolin-6-yl)-[1,1′-biphenyl]-3-yl)benzo[d]oxazol-5-yl)methyl)-L-proline] |
|  | 6.68 | 10.8 | 3.57 | 11 | Cc1c(-c2ccc3[nH]c(N)nc3c2)cccc1-c1cccc(-c2nc3cc(CN4CCC[C@H]4C(=O)O)c(OC(F)F)cc3o2)c1C [Example 293, ((2-(3′-(2-amino-1H-benzo[d]imidazol-5-yl)-2,2′-dimethyl-[1,1′-biphenyl]-3-yl)-6-(difluoromethoxy)benzo[d]oxazol-5-yl)methyl)-L-proline] |
